Results reported in US5886022A, “Substituted cycloalkanecarboxylic acid derivatives as matrix metalloprotease inhibitors” (priority 1997, dated 1999).

Experiments:
[1] = fenbufen analogs, literature; cited from earlier work
[2] = molecular target: T1, MMP-3 (recombinant truncated stromelysin) (Homo sapiens, UniProt P08254); assay: Primary Thiopeptilide MMP-3 Inhibition Assay; type: biochemical; conditions: x (n): average IC50 of n separate determinations
T1 construct: made in house; host or cells: E. coli
T1 sequence (P08254 100-274 limits assumed): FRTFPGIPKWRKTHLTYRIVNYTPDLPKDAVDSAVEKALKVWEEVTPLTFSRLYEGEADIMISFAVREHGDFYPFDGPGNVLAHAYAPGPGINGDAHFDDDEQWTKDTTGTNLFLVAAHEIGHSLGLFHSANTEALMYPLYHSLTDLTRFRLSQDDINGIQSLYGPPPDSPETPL
Description: Reaction mixtures for inhibitor studies contained 1 mM Ac-Pro-Leu-Gly-S-Leu-Leu-Gly-o-ethyl thiopeptolide substrate dissolved in HEPES assay buffer pH 6.5, along with 0.5 mM 5,5'-dithio-bis-(nitrobenzoicacid), drug concentrations ranging from 0.5 nM to 5 μM and activated enzyme (10-100 ng) in a total volume of 130 μl. […] Enzyme mediated substrate hydrolysis was corrected for non-enzymatic hydrolysis of the substrate by the subtraction of values from control samples incubated in the absence of enzyme. Drug efficacy was reported as the percent inhibition of enzyme activity calculated as:
Enzyme: recombinant stromelysin expressed in E.coli and purified as described above. […] The protocols for the assay of compounds as stromelysin inhibitors was the same as that used for MMP-9 except that the assay buffer was 50 mM MES, pH 6.5 containing 150mM NaCl, 10 mM CaCl2, 0.005% Brij, and 1% DMSO.
All IC50 values are expressed as nM. […] When "x (n)" is shown, x is the erage IC50 value of n separate determinations.

[3] = molecular target: T2, MMP-3 (recombinant stromelysin) (Homo sapiens, UniProt P08254); assay: Secondary P218 Quenched fluorescence Assay for MMP-3 Inhibition; type: biochemical
T2 construct: Expression and Purification of Recombinant Truncated Prostromelysin (MMP-3); made in house
T2 sequence (P08254 100-274 limits assumed): as above
Text: Truncated Prostromelysin-257 was expressed in a soluble form in E.coli as described by Marcy et al., Biochemistry, 30, 6476-6483, 1991. Soluble truncated prostromelysin was purified by a modification of the monoclonal antibody affinity chromatography method described by Housley et al., J. Biol. Chem., 268, 4481-87, 1993.
This assay was originally described by Knight et al., FEBS Letters, 296, 263-266, 1992, for a related substrate. The assay is run continuously in a 3.Oml cuvette using a Perkin-Elmer LS 50 B Spectrofluorimeter at 25° C. in a final volume of 2.0 mls. P218 substrate (10 mM) in 100% DMSO is diluted to a final concentration of 2.0 micromolar (μM) into assay buffer: 50 mM MES, pH 6.5 containing 150 mM NaCl, 10 mM CaCl2, 0.005% Brij-35, and 1%(v/v) DMSO. Test compounds(10 mM) in DMSO are diluted in assay buffer at an initial concentration of 10 to 100 micromolar. […] The reaction is initiated by the addition of recombinant stromelysin (MMP-3) at a final concentration of 1.0 nM. Upon peptide cleavage, the fluorescent MCA group was detected using an excitation wavelength of 328 nanometers and an emission wavelength of 393 nanometers. The assay is linear from 0.2 to 5 nM MMP-3 concentration and percent inhibition is calculated as described above for the primary thiopeptilide assay and IC50 values are determined by a linear regression analysis of percent inhibition versus log drug concentration. The peptide sequence of the MCA substrate, hereinafter esignated P218, is shown below:
MCA-Pro-Lys-Pro-Leu-Ala-Leu-DPA-Ala-Arg-NH2 P218
(§1) All IC50 values are expressed as nM. When "I=x %" is shown, x presents the % inhibition at 5 μM. When "x (n)" is shown, x is the erage IC50 value of n separate determinations.

[4] = molecular target: T3, MMP-9 (Gelatinase-B, 92 kDa) (Homo sapiens, UniProt P14780); assay: Thiopeptilide MMP-9 Inhibition Assay; type: biochemical; conditions: x (n): average IC50 of n separate determinations
T3 construct: from tissue; host or cells: human polymorphonuclear leukocytes from fresh whole blood (New York Blood Center), PMA-stimulated supernatant, purified
T3 sequence (P14780 107-707 limits assumed): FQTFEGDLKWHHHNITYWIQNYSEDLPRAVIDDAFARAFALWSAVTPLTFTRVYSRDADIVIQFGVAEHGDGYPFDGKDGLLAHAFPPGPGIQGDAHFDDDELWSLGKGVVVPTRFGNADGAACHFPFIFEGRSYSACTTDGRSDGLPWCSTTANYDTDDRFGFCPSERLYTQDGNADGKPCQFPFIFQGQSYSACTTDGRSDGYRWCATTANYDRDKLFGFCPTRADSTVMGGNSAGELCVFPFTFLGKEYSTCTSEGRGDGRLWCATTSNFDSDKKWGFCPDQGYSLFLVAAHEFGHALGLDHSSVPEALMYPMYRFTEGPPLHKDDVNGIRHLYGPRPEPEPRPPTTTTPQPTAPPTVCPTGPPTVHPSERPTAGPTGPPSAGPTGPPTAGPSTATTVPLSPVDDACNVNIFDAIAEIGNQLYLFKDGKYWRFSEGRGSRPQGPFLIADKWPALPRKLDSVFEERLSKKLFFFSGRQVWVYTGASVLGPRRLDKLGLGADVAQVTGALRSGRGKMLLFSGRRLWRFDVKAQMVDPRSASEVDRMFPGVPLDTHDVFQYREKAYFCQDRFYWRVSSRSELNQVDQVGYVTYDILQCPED
Description: MMP-9 was isolated modifying the previously described procedures of Hibbs et al (J. Biol. Chem., 260, 2493-2500, 1984) and Wilhelm et al (J. Biol. Chem., 264, 17213-17221, 1989). Briefly, polymorphonuclear leukocytes (PMN) preparations were isolated as described above from 3 or more units of freshly drawn whole blood obtained from the New York Blood Center (N.Y., N.Y.). Cells were resuspended in phosphate buffered saline (PBS) containing 100 ng/ml phorbol myristate acetate (PMA) in the presence of 50 mM di-isopropylfluorophospate (DFP), 1 μg/ml leupeptin and aprotinin, and 1 mg/ml catalase for 1 hr at 37° C. Supernatants were collected by centrifugation (300×g) and the samples were frozen at -70° C. All chromatographic methods were performed at 4° C. Thawed samples were concentrated 5-fold using an Amicon chamber equipped with a YM-10 membrane. The concentrate was pressure dialyzed against 0.02M Tris-HCl, 0.1M NaCl, 1 mM CaCl2, 1 μM ZnCl2, 0.001 % Brij-35, 0.02% sodium azide (NaN3), pH 7.5 and applied to DEAE ion exchange chromatography resin which was previously equilibrated with the same buffer at a flow rate of 0.4 ml/min. The column was extensively washed with the same buffer and gelatinase was eluted as 4 ml fractions from the column with 0.02M Tris-HCl, 0.5M NaCl, 1 mM CaCl2, 1 μM ZnCl2, 0.001% Brij-35, 0.02% NaN3, pH 7.5. Gelatinase containing fractions were observed by gelatin zymography (see below), loaded onto a gelatin agarose affinity resin and washed with the same buffer. Gelatinase activity was eluted at a flow rate of 1 ml/min from the column as 1 ml fractions with 0.02M Tris-HCl, 1M NaCl, 1 mM CaCl2, 1 μmM ZnCl2, 0.001% Brij-35, 0.02% NaN3, pH 7.5 containing 10% dimethyl sulfoxide (DMSO). The fractions containing gelatinase activity were pooled and dialyzed against 0.005M Tris-HCl, 5 mM NaCl, 0.5 mM CaCl2, 0.1 μM ZnCl2, 0.001% Brij-35, pH 7.4. The protein content associated with material was determined with a micro-BCA assay (Pierce, Rockford, Ill.), lyophilized and reconstituted to a desired working concentration (100 μg/ml).
Progelatinase (10 μg/ml) isolated from human PMNs (described above) was activated with 1 mM 4-aminophenylmercuric acetate (APMA) in 50 mM Tris-HCl, 200 mM NaCl, 5 mM CaCl2, 0.001% Brij-35, pH 7.6 at 37° C. for 16 hr. The activated enzyme was dialyzed against the above buffer to remove APMA. The thiopeptolide spectrophotometric ( Weingarten, H., Feder, J., Anal. Biochem., 147, 437-440, 1985) substrate hydrolysis assay was modified to a micro-assay format. Spectrophotometric analysis of MMP-9 activity required a 1000-fold dilution of activated MMP-9 (10 ng/ml, 0.14 nM) in assay buffer comprised of 50 mM 4-(2-hydroxyethyl)1-piperazine ethane sulfonic acid (HEPES), 0.15M NaCl, 10 mM CaCl2, 0.001% Brij-35, pH 6.5 between 100 and 1000-fold for enzyme assays. Reaction mixtures for inhibitor studies contained 1 mM Ac-Pro-Leu-Gly-S-Leu-Leu-Gly-o-ethyl thiopeptolide substrate dissolved in HEPES assay buffer pH 6.5, along with 0.5 mM 5,5'-dithio-bis-(nitrobenzoicacid), drug concentrations ranging from 0.5 nM to 5 μM and activated enzyme (10-100 ng) in a total volume of 130 μl. The hydrolysis of substrate was monitored at 405 nm using an automated plate reader (Molecular Devices, Menlo Park, Calif.). Enzyme mediated substrate hydrolysis was corrected for non-enzymatic hydrolysis of the substrate by the subtraction of values from control samples incubated in the absence of enzyme. Drug efficacy was reported as the percent inhibition of enzyme activity calculated as:
(Control Values-Treated Values)/Control Values×100
Two way analysis of variance was used to determine significance between individual test groups.
as §1

## CC(CC(=O)c1ccc(-c2ccccc2)cc1)C(=O)O (stereo not shown) [XLVIII]
[1]
  activity in words: inactive

## O=C(O)[C@@H]1[C@@H](C(=O)c2ccc(-c3ccc(Cl)cc3)cc2)CC[C@H]1Sc1ccccc1 (single isomer, unassigned) [Example 211, Cyclopentanecarboxylic acid, 2-[(4'-chloro[1,1'-biphenyl]-4-yl)carbonyl]-5-(phenylthio)-, [1S-(1α,2β,5β)]-]
[2]
  IC50: 26 nM
[3]; P218 substrate, x (n): average IC50 of n separate determinations, read-out: MMP-3 Fluorogenic IC50
  IC50: 12 nM
[4]
  IC50: 25 nM

## O=C(O)CC(C(=O)c1ccc(-c2ccccc2)cc1)c1ccccc1 (stereo not shown) [LXXVII]
[1]
  activity in words: inactive

## MCA-Pro-Lys-Pro-Leu-Ala-Leu-DPA-Ala-Arg-NH2 [Example P218, reference compound]
[3]; pH 6.5
  cat/Km value of substrate for MMP-3: 56,000 M^-1 sec^-1
[3]; pH 6.5, read-out: Km of substrate for MMP-3
  Km: 16 µM
